Assay results reported in patent US9273057B2 (Bristol-Myers Squibb Company, priority 2012, dated 2016).
Structures can show the parent of a compound that is named as a salt.

The molecules below were run against CK2A1 (CK2α/β) (Homo sapiens, UniProt P68400) (assay: CK2 kinase assay, CK2A1 (CK2α/β)). Details: Table A; read-out: CK2A1 (CK2α/β) (IC50).
Type: biochemical

CK2A1 (CK2α/β), sequence (P68400 whole entry, species assumed): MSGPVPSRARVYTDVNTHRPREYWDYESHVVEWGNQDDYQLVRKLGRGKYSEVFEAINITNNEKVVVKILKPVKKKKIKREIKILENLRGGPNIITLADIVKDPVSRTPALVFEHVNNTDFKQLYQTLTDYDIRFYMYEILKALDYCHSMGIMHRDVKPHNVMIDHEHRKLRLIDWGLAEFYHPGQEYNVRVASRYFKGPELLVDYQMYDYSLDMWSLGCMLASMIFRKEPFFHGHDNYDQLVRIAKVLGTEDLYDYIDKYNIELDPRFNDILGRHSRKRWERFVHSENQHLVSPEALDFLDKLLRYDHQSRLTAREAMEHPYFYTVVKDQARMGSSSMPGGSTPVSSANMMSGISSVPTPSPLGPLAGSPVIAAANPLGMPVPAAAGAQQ
CK2A1 (CK2α/β), sequence (P67870 whole entry partner, species assumed): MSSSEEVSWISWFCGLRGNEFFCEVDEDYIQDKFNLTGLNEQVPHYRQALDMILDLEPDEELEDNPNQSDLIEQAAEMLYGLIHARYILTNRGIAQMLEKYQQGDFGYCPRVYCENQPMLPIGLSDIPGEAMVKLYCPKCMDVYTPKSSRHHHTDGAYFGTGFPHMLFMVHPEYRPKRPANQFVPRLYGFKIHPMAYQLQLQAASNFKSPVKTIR

| SMILES | IC50 [nM] |
| --- | --- |
| COC(=O)N[C@H]1CN(c2cc(C#N)cc(Nc3nc(NC4CC4)c4ncc(C#N)n4n3)c2Cl)C[C@@H]1OC [Example 288, methyl ((3S,4S)-1-(2-chloro-5-cyano-3-((7-cyano-4-(cyclopropylamino)imidazo[2,1-f][1,2,4]triazin-2-yl)amino)phenyl)-4-methoxy-3-pyrrolidinyl)carbamate] | 0.91 |
| CO[C@@H]1CN(c2cc(C#N)cc(Nc3nc(NC4CC4)c4ncc(C#N)n4n3)c2Cl)C[C@@H]1NS(C)(=O)=O [Example 289, N-((3S,4R)-1-(2-chloro-5-cyano-3-((7-cyano-4-(cyclopropylamino)imidazo[2,1-f][1,2,4]triazin-2-yl)amino)phenyl)-4-methoxy-3-pyrrolidinyl)methanesulfonamide] | 0.59 |
| CO[C@@H]1CN(c2cc(C#N)cc(Nc3nc(NC4CC4)c4ncc(C#N)n4n3)c2Cl)C[C@@H]1NC(=O)NC1COC1 [Example 290, 1-((3S,4R)-1-(2-chloro-5-cyano-3-((7-cyano-4-(cyclopropylamino)imidazo[2,1-f][1,2,4]triazin-2-yl)amino)phenyl)-4-methoxy-3-pyrrolidinyl)-3-(3-oxetanyl)urea] | 0.47 |
| CO[C@@H]1CN(c2cc(C#N)cc(Nc3nc(NC4CC4)c4ncc(C#N)n4n3)c2Cl)C[C@@H]1NC(=O)OC1COC1 [Example 291, 3-oxetanyl ((3S,4R)-1-(2-chloro-5-cyano-3-((7-cyano-4-(cyclopropylamino)imidazo[2,1-f][1,2,4]triazin-2-yl)amino)phenyl)-4-methoxy-3-pyrrolidinyl)carbamate] | 0.59 |
| COC(=O)N[C@@H]1CN(c2cc(C#N)cc(Nc3nc(NC4CC4)c4ncc(C#N)n4n3)c2Cl)C[C@@H]1C [Example 293, methyl ((3S,4S)-1-(2-chloro-5-cyano-3-((7-cyano-4-(cyclopropylamino)imidazo[2,1-f][1,2,4]triazin-2-yl)amino)phenyl)-4-methyl-3-pyrrolidinyl)carbamate] | 1.89 |
| COC(=O)N[C@H]1C[C@@H](O)CN(c2cc(C#N)cc(Nc3nc(NC4CC4)c4ncc(C#N)n4n3)c2Cl)C1 [Example 295, methyl ((3S,5R)-1-(2-chloro-5-cyano-3-((7-cyano-4-(cyclopropylamino)imidazo[2,1-f][1,2,4]triazin-2-yl)amino)phenyl)-5-hydroxy-3-piperidinyl)carbamate] | 1.21 |
| CC1(C)CN2CCN(c3cc(C#N)cc(Nc4nc(NC5CC5)c5ncc(C#N)n5n4)c3Cl)C[C@H]2CO1 [Example 303, (S)-2-((2-chloro-5-cyano-3-(3,3-dimethylhexahydropyrazino[2,1-c][1,4]oxazin-8(1H)-yl)phenyl)amino)-4-(cyclopropylamino)imidazo[2,1-f][1,2,4]triazine-7-carbonitrile, HCl] | 0.69 |
| CC1(N2CCOCC2)CCN(c2cc(C#N)cc(Nc3nc(NC4CC4)c4ncc(C#N)n4n3)c2Cl)CC1 [Example 304, 2-((2-chloro-5-cyano-3-(4-methyl-4-morpholinopiperidin-1-yl)phenyl)amino)-4-(cyclopropylamino)imidazo[2,1-f][1,2,4]triazine-7-carbonitrile, HCl] | 0.8 |
| N#Cc1cc(Nc2nc(NC3CC3)c3ncc(C#N)n3n2)c(Cl)c(N2C[C@@H](O)[C@H](N3CCOCC3)C2)c1 [Example 307, 2-((2-chloro-5-cyano-3-((3R,4R)-3-hydroxy-4-(4-morpholinyl)-1-pyrrolidinyl)phenyl)amino)-4-(cyclopropylamino)imidazo[2,1-f][1,2,4]triazine-7-carbonitrile] | 0.88 |

The next lines start with the values.

| IC50 [nM] | SMILES |
| --- | --- |
| 1.67 | N#Cc1cc(Nc2nc(NC3CC3)c3ncc(C#N)n3n2)c(Cl)c(N2CCN3CCOC[C@H]3C2)c1 [Example 308, (R)-2-((2-chloro-5-cyano-3-(hexahydropyrazino[2,1-c][1,4]oxazin-8(1H)-yl)phenyl)amino)-4-(cyclopropylamino)imidazo[2,1-f][1,2,4]triazine-7-carbonitrile] |
| 1.31 | N#Cc1cc(Nc2nc(NC3CC3)c3ncc(C#N)n3n2)c(Cl)c(N2CCN3CCOC[C@@H]3C2)c1 [Example 309, (S)-2-((2-chloro-5-cyano-3-(hexahydropyrazino[2,1-c][1,4]oxazin-8(1H)-yl)phenyl)amino)-4-(cyclopropylamino)imidazo[2,1-f][1,2,4]triazine-7-carbonitrile] |
| 0.96 | CC1(N2CCN(c3cc(C#N)cc(Nc4nc(NC5CC5)c5ncc(C#N)n5n4)c3Cl)CC2)COC1 [Example 311, 2-((2-chloro-5-cyano-3-(4-(3-methyl-3-oxetanyl)-1-piperazinyl)phenyl)amino)-4-(cyclopropylamino)imidazo[2,1-f][1,2,4]triazine-7-carbonitrile] |
| 0.99 | CN(C)C(=O)C1CN(c2cc(C#N)cc(Nc3nc(NC4CC4)c4ncc(C#N)n4n3)c2Cl)CCN1CC(C)(C)O (stereo not shown) [Example 317, 4-(2-chloro-5-cyano-3-((7-cyano-4-(cyclopropylamino)imidazo [2,1-f][1,2,4]triazin-2-yl)amino)phenyl)-1-(2-hydroxy-2-methylpropyl)-N,N-dimethylpiperazine-2-carboxamide] |
| 0.78 | N#Cc1cc(Nc2nc(NC3CC3)c3ncc(C#N)n3n2)c(Cl)c(C2CCN(C3CNC3)CC2)c1 [Example 318, 2-((3-(1-(azetidin-3-yl)piperidin-4-yl)-2-chloro-5-cyanophenyl)amino)-4-(cyclopropylamino)imidazo[2,1-f][1,2,4]triazine-7-carbonitrile] |
| 0.35 | COC(=O)N1CC(N2CCC(c3cc(C#N)cc(Nc4nc(NC5CC5)c5ncc(C#N)n5n4)c3Cl)CC2)C1 [Example 320, methyl 3-(4-(2-chloro-5-cyano-3-((7-cyano-4-(cyclopropylamino)imidazo[2,1-f][1,2,4]triazin-2-yl)amino)phenyl)piperidin-1-yl)azetidine-1-carboxy] |
| 0.66 | CS(=O)(=O)N1CC(N2CCC(c3cc(C#N)cc(Nc4nc(NC5CC5)c5ncc(C#N)n5n4)c3Cl)CC2)C1 [Example 321, 2-((2-chloro-5-cyano-3-(1-(1-(methylsulfonyl)azetidin-3-yl)piperidin-4-yl)phenyl)amino)-4-(cyclopropylamino)imidazo[2,1-f][1,2,4]triazine-7-carbonitrile] |
| 1.78 | C[C@H](O)CN1CC(N2CCC(c3cc(C#N)cc(Nc4nc(NC5CC5)c5ncc(C#N)n5n4)c3Cl)CC2)C1 [Example 322, 2-((2-chloro-5-cyano-3-(1-(1-((2S)-2-hydroxypropyl)-3-azetidinyl)-4-piperidinyl)phenyl)amino)-4-(cyclopropylamino)imidazo [2,1-f][1,2,4]triazine-7-carbonitrile] |
| 0.59 | N#Cc1cc(Nc2nc(NC3CC3)c3ncc(C#N)n3n2)c(Cl)c(C2CCN(C3CN(CC4CC4)C3)CC2)c1 [Example 323, 2-((2-chloro-5-cyano-3-(1-(1-(cyclopropylmethyl)-3-azetidinyl)-4-piperidinyl)phenyl)amino)-4-(cyclopropylamino)imidazo [2,1-f][1,2,4]triazine-7-carbonitrile] |
| 0.78 | CC(C)(O)CN1CC(N2CCC(c3cc(C#N)cc(Nc4nc(NC5CC5)c5ncc(C#N)n5n4)c3Cl)CC2)C1 [Example 324, 2-((2-chloro-5-cyano-3-(1-(1-(2-hydroxy-2-methylpropyl)-3-azetidinyl)-4-piperidinyl)phenyl)amino)-4-(cyclopropylamino)imidazo [2,1-f][1,2,4]triazine-7-carbonitrile] |
